Assay results from ChEMBL document CHEMBL1649271, “In vitro sensitivity testing of Leishmania clinical field isolates: preconditioning of promastigotes enhances infectivity for macrophage host cells” (Antimicrob Agents Chemother, 2009).
Values belong to the compound of their own block, whether it stands above or below them.

Tests used:
[1] = test system: Leishmania donovani; assay: Activity index, ratio of IC50 for Leishmania donovani BPK091 to IC50 for Leishmania donovani BPK043; type: functional, organism-based
[2] = test system: Leishmania donovani; assay: Activity index, ratio of IC50 for Leishmania donovani BPK178 to IC50 for Leishmania donovani BPK043; type: functional, organism-based
[3] = test system: Leishmania donovani; assay: Activity index, ratio of IC50 for Leishmania donovani BPK206 to IC50 for Leishmania donovani BPK043; type: functional, organism-based
[4] = test system: Leishmania donovani; assay: Activity index, ratio of IC50 for Leishmania donovani BPK206cl to IC50 for Leishmania donovani BPK043; type: functional, organism-based
[5] = test system: Leishmania donovani; assay: Activity index, ratio of IC50 for Leishmania donovani BPK274 to IC50 for Leishmania donovani BPK043; type: functional, organism-based
[6] = test system: Leishmania donovani; assay: Activity index, ratio of IC50 for Leishmania donovani BPK294 to IC50 for Leishmania donovani BPK043; type: functional, organism-based
[7] = test system: Leishmania donovani; assay: Activity index, ratio of IC50 for Leishmania donovani BPK298 to IC50 for Leishmania donovani BPK043; type: functional, organism-based
[8] = test system: Leishmania donovani; assay: Activity index, ratio of IC50 for Leishmania donovani BPK177 to IC50 for Leishmania donovani BPK043; type: functional, organism-based
[9] = test system: Leishmania donovani; assay: Activity index, ratio of IC50 for Leishmania donovani BPK190 to IC50 for Leishmania donovani BPK043; type: functional, organism-based
[10] = test system: Leishmania donovani; assay: Activity index, ratio of IC50 for Leishmania donovani BPK190cl to IC50 for Leishmania donovani BPK043; type: functional, organism-based
[11] = test system: Leishmania guyanensis; assay: Activity index, ratio of IC50 for Leishmania guyanensis PER008 to IC50 for Leishmania guyanensis PER106; type: functional, organism-based
[12] = test system: Leishmania guyanensis; assay: Activity index, ratio of IC50 for Leishmania guyanensis PER054 to IC50 for Leishmania guyanensis PER106; type: functional, organism-based
[13] = test system: Leishmania guyanensis; assay: Activity index, ratio of IC50 for Leishmania guyanensis PER072 to IC50 for Leishmania guyanensis PER106; type: functional, organism-based
[14] = test system: Leishmania guyanensis; assay: Activity index, ratio of IC50 for Leishmania guyanensis PER080 to IC50 for Leishmania guyanensis PER106; type: functional, organism-based
[15] = Activity index, ratio of IC50 for Leishmania braziliensis PER002cl to IC50 for Leishmania guyanensis PER106; type: functional
[16] = Activity index, ratio of IC50 for Leishmania braziliensis PER005cl to IC50 for Leishmania guyanensis PER106; type: functional
[17] = test system: Leishmania donovani; assay: Antileishmanial activity against Leishmania donovani BPK043 amastigotes infected in Swiss mouse primary peritoneal mouse macrophages assessed as reduction of total parasite burden after 5 days; type: functional, organism-based
[18] = test system: Leishmania donovani; assay: Antileishmanial activity against Leishmania donovani BPK091 amastigotes infected in Swiss mouse primary peritoneal mouse macrophages assessed as reduction of total parasite burden after 5 days; type: functional, organism-based
[19] = test system: Leishmania donovani; assay: Antileishmanial activity against Leishmania donovani BPK178 amastigotes infected in Swiss mouse primary peritoneal mouse macrophages assessed as reduction of total parasite burden after 5 days; type: functional, organism-based
[20] = test system: Leishmania donovani; assay: Antileishmanial activity against Leishmania donovani BPK206 amastigotes infected in Swiss mouse primary peritoneal mouse macrophages assessed as reduction of total parasite burden after 5 days; type: functional, organism-based
[21] = test system: Leishmania donovani; assay: Antileishmanial activity against Leishmania donovani BPK206cl amastigotes infected in Swiss mouse primary peritoneal mouse macrophages assessed as reduction of total parasite burden after 5 days; type: functional, organism-based
[22] = test system: Leishmania donovani; assay: Antileishmanial activity against Leishmania donovani BPK274 amastigotes infected in Swiss mouse primary peritoneal mouse macrophages assessed as reduction of total parasite burden after 5 days; type: functional, organism-based
[23] = test system: Leishmania donovani; assay: Antileishmanial activity against Leishmania donovani BPK294 amastigotes infected in Swiss mouse primary peritoneal mouse macrophages assessed as reduction of total parasite burden after 5 days; type: functional, organism-based
[24] = test system: Leishmania donovani; assay: Antileishmanial activity against Leishmania donovani BPK298 amastigotes infected in Swiss mouse primary peritoneal mouse macrophages assessed as reduction of total parasite burden after 5 days; type: functional, organism-based
[25] = test system: Leishmania donovani; assay: Antileishmanial activity against Leishmania donovani BPK177 amastigotes infected in Swiss mouse primary peritoneal mouse macrophages assessed as reduction of total parasite burden after 5 days; type: functional, organism-based
[26] = test system: Leishmania donovani; assay: Antileishmanial activity against Leishmania donovani BPK190 amastigotes infected in Swiss mouse primary peritoneal mouse macrophages assessed as reduction of total parasite burden after 5 days; type: functional, organism-based
[27] = test system: Leishmania donovani; assay: Antileishmanial activity against Leishmania donovani BPK190cl amastigotes infected in Swiss mouse primary peritoneal mouse macrophages assessed as reduction of total parasite burden after 5 days; type: functional, organism-based
[28] = test system: Leishmania guyanensis; assay: Antileishmanial activity against Leishmania guyanensis PER106 amastigotes infected in Swiss mouse primary peritoneal mouse macrophages assessed as reduction of total parasite burden after 5 days; type: functional, organism-based
[29] = test system: Leishmania guyanensis; assay: Antileishmanial activity against Leishmania guyanensis PER008 amastigotes infected in Swiss mouse primary peritoneal mouse macrophages assessed as reduction of total parasite burden after 5 days; type: functional, organism-based
[30] = test system: Leishmania guyanensis; assay: Antileishmanial activity against Leishmania guyanensis PER054 amastigotes infected in Swiss mouse primary peritoneal mouse macrophages assessed as reduction of total parasite burden after 5 days; type: functional, organism-based
[31] = test system: Leishmania guyanensis; assay: Antileishmanial activity against Leishmania guyanensis PER072 amastigotes infected in Swiss mouse primary peritoneal mouse macrophages assessed as reduction of total parasite burden after 5 days; type: functional, organism-based
[32] = test system: Leishmania guyanensis; assay: Antileishmanial activity against Leishmania guyanensis PER080 amastigotes infected in Swiss mouse primary peritoneal mouse macrophages assessed as reduction of total parasite burden after 5 days; type: functional, organism-based
[33] = test system: Leishmania braziliensis; assay: Antileishmanial activity against Leishmania braziliensis PER002cl amastigotes infected in Swiss mouse primary peritoneal mouse macrophages assessed as reduction of total parasite burden after 5 days; type: functional, organism-based
[34] = test system: Leishmania braziliensis; assay: Antileishmanial activity against Leishmania braziliensis PER005cl amastigotes infected in Swiss mouse primary peritoneal mouse macrophages assessed as reduction of total parasite burden after 5 days; type: functional, organism-based

Compound: sodium stibogluconate
Ratio IC50 [1]: 3.2
Ratio IC50 [2]: 3.1
Ratio IC50 [3]: 3.6
Ratio IC50 [4]: 5.5
Ratio IC50 [5]: 3.2
Ratio IC50 [6]: 1.5
Ratio IC50 [7]: 1.9
Ratio IC50 [8]: 6.6
Ratio IC50 [9]: 6.6
Ratio IC50 [10]: 4.2
Ratio IC50 [11]: 3.2
Ratio IC50 [12]: 4
Ratio IC50 [13]: 6
Ratio IC50 [14]: 2.5
Ratio IC50 [15]: 4.5
Ratio IC50 [16]: 5.8

Compound: CCCCCCCCCCCCCCCCOP(=O)([O-])OCC[N+](C)(C)C [MILTEFOSINE]
IC50 ([17]; Leishmania donovani, BPK043, 120 h, read-out: IC50): 1.5 µM
IC50 ([18]; Leishmania donovani, BPK091, 120 h, read-out: IC50): 3.2 µM
IC50 ([19]; Leishmania donovani, BPK178, 120 h, read-out: IC50): 5.5 µM
IC50 ([20]; Leishmania donovani, BPK206, 120 h, read-out: IC50): 4 µM
IC50 ([21]; Leishmania donovani, BPK206cl, 120 h, read-out: IC50): 2 µM
IC50 ([22]; Leishmania donovani, BPK274, 120 h, read-out: IC50): 7.1 µM
IC50 ([23]; Leishmania donovani, BPK294, 120 h, read-out: IC50): 3 µM
IC50 ([24]; Leishmania donovani, BPK298, 120 h, read-out: IC50): 3.4 µM
IC50 ([25]; Leishmania donovani, BPK177, 120 h, read-out: IC50): 2 µM
IC50 ([26]; Leishmania donovani, BPK190, 120 h, read-out: IC50): 4.5 µM
IC50 ([27]; Leishmania donovani, BPK190cl, 120 h, read-out: IC50): 3 µM
IC50 ([28]; Leishmania guyanensis, PER106, 120 h, read-out: IC50): 10 µM
IC50 ([29]; Leishmania guyanensis, PER008, 120 h, read-out: IC50): 5 µM
IC50 ([30]; Leishmania guyanensis, PER054, 120 h, read-out: IC50): 9.5 µM
IC50 ([31]; Leishmania guyanensis, PER072, 120 h, read-out: IC50): 10 µM
IC50 ([32]; Leishmania guyanensis, PER080, 120 h, read-out: IC50): 7.5 µM
IC50 ([33]; Leishmania braziliensis, PER002cl, 120 h, read-out: IC50): 10.3 µM
IC50 ([34]; Leishmania braziliensis, PER005cl, 120 h, read-out: IC50): 10 µM

Compound: POTASSIUM ANTIMONYL TARTRATE TRIHYDRATE [listing 1 of 2 here]
Ratio IC50 [1]: 3.9
Ratio IC50 [2]: 3.6
Ratio IC50 [3]: 1.8
Ratio IC50 [4]: 0.8
Ratio IC50 [5]: 2.7
Ratio IC50 [6]: 1
Ratio IC50 [7]: 2
Ratio IC50 [8]: 5.3
Ratio IC50 [9]: 4.5
Ratio IC50 [10]: 4
Ratio IC50 [11]: 1.6
Ratio IC50 [12]: 1.6
Ratio IC50 [13]: 1.6
Ratio IC50 [14]: 1.4
Ratio IC50 [15]: 1.3
Ratio IC50 [16]: 2.4

IC50 [17]: 6 µg/mL
IC50 [18]: 24.2 µg/mL
IC50 [19]: 21.8 µg/mL
IC50 [20]: 11 µg/mL
IC50 [21]: 5 µg/mL
IC50 [22]: 16.2 µg/mL
IC50 [23]: 6 µg/mL
IC50 [24]: 12 µg/mL
IC50 [25]: 32 µg/mL
IC50 [26]: 27.3 µg/mL
IC50 [27]: 24 µg/mL
IC50 [28]: 12 µg/mL
IC50 [29]: 18 µg/mL
IC50 [30]: 18 µg/mL
IC50 [31]: 19 µg/mL
IC50 [32]: 14.5 µg/mL
IC50 [33]: 13.5 µg/mL
IC50 [34]: 25 µg/mL
Compound: POTASSIUM ANTIMONYL TARTRATE TRIHYDRATE [listing 2 of 2 here]
